# Experiments:
# Cavia porcellus [1] = assay: Cardiotoxicity in guinea pig assessed as effect on RR interval time at 5 mg/kg, ip measured after 80 mins by ECG analysis (reference value: 208.4 to 238.4 milliseconds); type: toxicity, organism-based; conditions: in vivo
# Cavia porcellus [2] = assay: Cardiotoxicity in guinea pig assessed as effect on QT interval time at 5 mg/kg, ip measured after 50 mins by ECG analysis (reference value: 127.6 to 131.2 milliseconds); type: toxicity, organism-based; conditions: in vivo
# Cavia porcellus [3] = assay: Cardiotoxicity in guinea pig assessed as effect on frequence of heart rate at 5 mg/kg, ip measured after 50 mins by ECG analysis (reference value: 262 to 296 /min); type: toxicity, organism-based; conditions: in vivo
# Cavia porcellus [4] = assay: Cardiotoxicity in guinea pig assessed as effect on QTc interval time at 5 mg/kg, ip measured after 30 mins by ECG analysis (reference value: […] to […] milliseconds); type: toxicity, organism-based; conditions: in vivo, 0.5 h
# Cavia porcellus [5] = assay: Cardiotoxicity in guinea pig assessed as effect on QTc interval time at 5 mg/kg, ip measured after 20 mins by ECG analysis (reference value: […] to […] milliseconds); type: toxicity, organism-based; conditions: in vivo
# Cavia porcellus [6] = assay: Cardiotoxicity in guinea pig assessed as effect on QTc interval time at 5 mg/kg, ip measured after 40 mins by ECG analysis (reference value: […] to […] milliseconds); type: toxicity, organism-based; conditions: in vivo
# [7] = biological target: T1, 5-hydroxytryptamine receptor 1A (Homo sapiens, UniProt P08908); assay: biochemical
# T1 sequence (P08908 whole entry): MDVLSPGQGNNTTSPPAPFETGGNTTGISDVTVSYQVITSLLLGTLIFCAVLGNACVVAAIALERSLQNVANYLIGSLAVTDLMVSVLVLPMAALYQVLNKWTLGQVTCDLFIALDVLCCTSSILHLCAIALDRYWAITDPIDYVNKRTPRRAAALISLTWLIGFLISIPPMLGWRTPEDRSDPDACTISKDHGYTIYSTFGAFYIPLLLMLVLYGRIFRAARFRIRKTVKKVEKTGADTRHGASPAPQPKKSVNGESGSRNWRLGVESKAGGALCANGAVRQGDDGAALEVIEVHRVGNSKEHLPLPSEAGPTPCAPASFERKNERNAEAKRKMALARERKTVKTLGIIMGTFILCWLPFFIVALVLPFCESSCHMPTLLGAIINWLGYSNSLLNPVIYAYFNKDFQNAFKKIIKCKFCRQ
# Description: Displacement of [3H]-8-OH-DPAT from human 5-HT1AR expressed in HEK293 cell membranes after 1 hr by microbeta counting method
# Cavia porcellus [8] = assay: Cardiotoxicity in guinea pig assessed as effect on frequence of heart rate at 5 mg/kg, ip measured after 80 mins by ECG analysis (reference value: 262 to 296 /min); type: toxicity, organism-based; conditions: in vivo
# [9] = biological target: T2, 5-hydroxytryptamine receptor 1A (Homo sapiens) (UniProt P08908); assay: Antagonist activity at human 5-HT1AR expressed in mouse BA/F3 cells assessed as inhibition of serotonin-induced calcium flux at 10^-6 M by fluorimetric method; type: functional, cell-based
# T2 sequence (whole entry): T1 sequence (P08908 whole entry)
# Cavia porcellus [10] = assay: Cardiotoxicity in guinea pig assessed as effect on QT interval time at 5 mg/kg, ip measured after 40 mins by ECG analysis (reference value: 127.6 to 131.2 milliseconds); type: toxicity, organism-based; conditions: in vivo
# Cavia porcellus [11] = assay: Cardiotoxicity in guinea pig assessed as effect on QRS interval time at 5 mg/kg, ip measured after 10 mins by ECG analysis (reference value: 26.2 to 31.6 milliseconds); type: toxicity, organism-based; conditions: in vivo
# [12] = Drug level in Wistar rat plasma at 3 mg/kg, ip measured after 15 mins by LC-MS/MS analysis; type: ADME, organism-based
# Rattus norvegicus [13] = organism: Rattus norvegicus; assay: animal or person; conditions: Sprague-Dawley, ip, read-out: MED
# Description: Reversal of PCP-induced cognitive impairment in ip dosed Sprague-Dawley rat assessed as reduction in time spent exploring novel object over familiar object pretreated for 60 mins followed by PCP addition by novel object recognition assay
# [14] = biological target: T2, 5-hydroxytryptamine receptor 1A (Homo sapiens); assay: Partial agonist activity at human 5-HT1AR expressed in CHO-K1 cells assessed as increase in cAMP accumulation at 10^-6 M by chemiluminescence-based assay relative to serotonin; type: functional, cell-based
# Cavia porcellus [15] = assay: Cardiotoxicity in guinea pig assessed as effect on PR interval time at 5 mg/kg, ip measured after 50 mins by ECG analysis (reference value: 58.8 to 63.8 milliseconds); type: toxicity, organism-based; conditions: in vivo
# [16] = biological target: 5-hydroxytryptamine receptor 2B (Homo sapiens) (UniProt P41595); assay: Agonist activity at human 5-HT2BR expressed in CHO cells assessed as induction of IP1 accumulation at 10^-6 M after 30 mins by HTRF method; type: functional, cell-based
# Cytochrome P450 2C9 = Cytochrome P450 2C9 (Homo sapiens, UniProt P11712); assay: Inhibition of human supersome CYP2C9 using diclofenac as substrate assessed as diclofenac 4'-hydroxylation after 30 mins by HPLC-UV detection; type: ADME
# [17] = Drug level in Wistar rat plasma at 3 mg/kg, ip measured after 30 mins by LC-MS/MS analysis; type: ADME, organism-based
# Rattus norvegicus [18] = assay: Effect on failure incidence during conditioned avoidance response test in Sprague-Dawley rat at 3 mg/kg, ip administered 60 mins prior to testing; type: ADME, organism-based; conditions: in vivo, 1 h
# Cavia porcellus [19] = assay: Cardiotoxicity in guinea pig assessed as effect on QTc interval time at 5 mg/kg, ip measured after 60 mins by ECG analysis (reference value: […] to […] milliseconds); type: toxicity, organism-based; conditions: in vivo, 1 h
# Cavia porcellus [20] = assay: Cardiotoxicity in guinea pig assessed as effect on frequence of heart rate at 5 mg/kg, ip measured after 20 mins by ECG analysis (reference value: 262 to 296 /min); type: toxicity, organism-based; conditions: in vivo
# Cavia porcellus [21] = assay: Cardiotoxicity in guinea pig assessed as effect on QRS interval time at 5 mg/kg, ip measured after 80 mins by ECG analysis (reference value: 26.2 to 31.6 milliseconds); type: toxicity, organism-based; conditions: in vivo
# Cavia porcellus [22] = assay: Cardiotoxicity in guinea pig assessed as effect on QT interval time at 5 mg/kg, ip measured after 20 mins by ECG analysis (reference value: 127.6 to 131.2 milliseconds); type: toxicity, organism-based; conditions: in vivo
# [23] = Intrinsic clearance in rat liver microsomes at 20 uM at 37 degC measured after 120 mins in presence of NADPH-regenerating system by UPLC-MS analysis; type: ADME, microsome; conditions: read-out: CLH
# Rattus norvegicus [24] = assay: Cardiotoxicity in Wistar rat assessed as effect on blood pressure at 2 to 5 mg/kg, iv; type: toxicity, organism-based; conditions: in vivo
# Rattus norvegicus [25] = organism: Rattus norvegicus; assay: animal or person; conditions: Sprague-Dawley, ip, read-out: MED; remark: listed apart in the source
# Description: Antipsychotic activity in ip dosed Sprague-Dawley rat assessed as reduction in PCP-induced hyper-locomotion pretreated for 60 mins followed by PCP addition measured for 30 mins starting 15 min after rat reintroduction to auto-tracks
# Rattus norvegicus [26] = organism: Rattus norvegicus; assay: animal or person; conditions: Sprague-Dawley, ip, read-out: MED; remark: listed apart in the source
# Description: Antipsychotic activity in ip dosed Sprague-Dawley rat assessed as suppression of avoidance behavior by avoiding foot shock administered 60 mins prior to test by conditioned avoidance response test
# Cavia porcellus [27] = assay: Cardiotoxicity in guinea pig assessed as effect on frequence of heart rate at 5 mg/kg, ip measured after 10 mins by ECG analysis (reference value: 262 to 296 /min); type: toxicity, organism-based; conditions: in vivo
# Cavia porcellus [28] = assay: Cardiotoxicity in guinea pig assessed as effect on QT interval time at 5 mg/kg, ip measured after 10 mins by ECG analysis (reference value: 127.6 to 131.2 milliseconds); type: toxicity, organism-based; conditions: in vivo
# Cavia porcellus [29] = assay: Cardiotoxicity in guinea pig assessed as effect on QRS interval time at 5 mg/kg, ip measured after 60 mins by ECG analysis (reference value: 26.2 to 31.6 milliseconds); type: toxicity, organism-based; conditions: in vivo, 1 h
# Cavia porcellus [30] = assay: Cardiotoxicity in guinea pig assessed as effect on PR interval time at 5 mg/kg, ip measured after 60 mins by ECG analysis (reference value: 58.8 to 63.8 milliseconds); type: toxicity, organism-based; conditions: in vivo, 1 h
# Sequence of 5-hydroxytryptamine receptor 2B (Homo sapiens) (P41595 whole entry): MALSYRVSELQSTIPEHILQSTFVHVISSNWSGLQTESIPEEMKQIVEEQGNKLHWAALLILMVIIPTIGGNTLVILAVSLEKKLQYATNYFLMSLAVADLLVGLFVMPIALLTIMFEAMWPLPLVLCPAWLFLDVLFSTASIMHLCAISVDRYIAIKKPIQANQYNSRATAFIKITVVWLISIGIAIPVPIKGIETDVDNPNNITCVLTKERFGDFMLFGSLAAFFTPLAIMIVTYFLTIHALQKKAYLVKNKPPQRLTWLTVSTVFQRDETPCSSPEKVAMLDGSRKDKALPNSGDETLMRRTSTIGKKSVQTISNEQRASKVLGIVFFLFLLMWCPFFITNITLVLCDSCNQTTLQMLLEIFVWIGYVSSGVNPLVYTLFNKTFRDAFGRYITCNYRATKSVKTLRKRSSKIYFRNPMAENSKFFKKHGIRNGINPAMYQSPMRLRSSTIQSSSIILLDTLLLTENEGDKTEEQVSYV
# Sequence of Cytochrome P450 2C9 (P11712 whole entry): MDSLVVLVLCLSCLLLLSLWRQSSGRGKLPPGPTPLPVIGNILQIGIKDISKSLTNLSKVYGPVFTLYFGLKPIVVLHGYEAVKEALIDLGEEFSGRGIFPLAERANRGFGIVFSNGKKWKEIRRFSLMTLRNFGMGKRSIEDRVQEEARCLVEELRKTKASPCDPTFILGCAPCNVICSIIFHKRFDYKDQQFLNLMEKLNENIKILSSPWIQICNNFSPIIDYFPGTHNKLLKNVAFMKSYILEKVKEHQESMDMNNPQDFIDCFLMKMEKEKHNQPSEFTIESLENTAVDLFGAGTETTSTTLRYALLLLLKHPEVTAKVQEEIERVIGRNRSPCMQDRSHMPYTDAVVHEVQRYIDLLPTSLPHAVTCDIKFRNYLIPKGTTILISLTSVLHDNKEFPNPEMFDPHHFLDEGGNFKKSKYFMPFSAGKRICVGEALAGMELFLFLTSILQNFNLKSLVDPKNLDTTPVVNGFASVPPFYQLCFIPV
SMILES,Time (Cavia porcellus [1]) [ms],Time (Cavia porcellus [2]) [ms],Activity (Cavia porcellus [3]) [min⁻¹],Time (Cavia porcellus [4]) [ms],Time (Cavia porcellus [5]) [ms],Time (Cavia porcellus [6]) [ms],Ki [7] [nM],Activity (Cavia porcellus [8]) [min⁻¹],inhibition [9] [%],Time (Cavia porcellus [10]) [ms],Time (Cavia porcellus [11]) [ms],concentration at 0.25 h [12] [nM],minimal effective dose (Rattus norvegicus [13]) [mg/kg],Activity [14] [%],Time (Cavia porcellus [15]) [ms],IC50 (Cytochrome P450 2C9) [nM],concentration at 0.5 h [17] [nM],Activity (Rattus norvegicus [18]),Time (Cavia porcellus [19]) [ms],Activity (Cavia porcellus [20]) [min⁻¹],other results
O=S(=O)(c1cncc2ccccc12)N1CCC[C@H]1CCN1CCN(c2nsc3ccccc23)CC1,213,121.6,288,280.6,269.6,274.2,37,284,87,125.4,25.4,249,1,5.3,60,100000,177,Non-Toxic,275.8,296,Kb [16]: 3 nM; Time (Cavia porcellus [21]): 26 ms; Time (Cavia porcellus [22]): 121.6 ms; microsomal CLint at 20 µM [23]: 1.73 µL/min/mg; Activity (Rattus norvegicus [24]): Non-Toxic; minimal effective dose (Rattus norvegicus [25]): 1 mg/kg; minimal effective dose (Rattus norvegicus [26]): 3 mg/kg; Activity (Cavia porcellus [27]): 304 min⁻¹; Time (Cavia porcellus [28]): 121.8 ms; Time (Cavia porcellus [29]): 27.2 ms; Time (Cavia porcellus [30]): 63.2 ms
O=S(=O)(c1cncc2ccccc12)N1CCC[C@H]1CCN1CCN(c2cccc3sccc23)CC1,214,124.8,270,262.8,265,263.4,18,286,80,125.2,30.8,188,1,40.6,64.2,> 100000,105,Non-Toxic,266.6,256,inhibition [16]: 14%; Time (Cavia porcellus [21]): 32 ms; Time (Cavia porcellus [22]): 129 ms; microsomal CLint at 20 µM [23]: 2.81 µL/min/mg; Activity (Rattus norvegicus [24]): Non-Toxic; minimal effective dose (Rattus norvegicus [25]): 1 mg/kg; minimal effective dose (Rattus norvegicus [26]): 3 mg/kg; Activity (Cavia porcellus [27]): 263 min⁻¹; Time (Cavia porcellus [28]): 127.4 ms; Time (Cavia porcellus [29]): 30.4 ms; Time (Cavia porcellus [30]): 63.4 ms

# From ChEMBL document CHEMBL4229332, “Novel multi-target azinesulfonamides of cyclic amine derivatives as potential antipsychotics with pro-social and pro-cognitive effects” (Eur J Med Chem, 2018)
